Experimental data: publication PMC10564737, “Structure-based design of a phosphotyrosine-masked covalent ligand targeting the E3 ligase SOCS2” (Nature Communications, 2023)
“And” between values parts separate entries of the source, which are not always exact repeats. Identical values can stand only once. “Also recorded” adds a separate entry of the source.

Experiments:
Assay in all cases: Intact ESI-MS of recombinant protein, covalent modification
Format in all cases: biochemical
CISH-EloBC = target: T1, CISH-EloBC (Homo sapiens, UniProt Q9NSE2, DEL174-202); details: CISH + MN551 (1:1, 40 µM), 0 min
T1 construct: CISH (66-258 Δ174-202) was codon-optimized for bacterial expression; GST (from pGEX-6P-1); made in house; host or cells: E. coli BL21(DE3)
Excerpt: (§1) Having established the specificity of MN551 for covalent modification of Cys111 of SOCS2, we turned our attention to the intra-SOCS family selectivity of MN551. We performed a multiple sequence alignment of the SH2 domains from all the SOCS proteins (Fig. 3a). The Cys111 targeted by MN551 for covalency is part of the EF loop in SOCS2. Beyond SOCS2, other family members SOCS4, SOCS5, SOCS7, and CISH also have a cysteine in the same loop (Fig. 3a), and given the expected conserved ligand binding mode, they could all be engaged by MN551. To verify our hypothesis, we incubated recombinant SOCS/EloBC complexes of SOCS4 (SBC4), SOCS6 (SBC6), and CISH with MN551 for 2 h and analyzed for covalent modification of the SOCS proteins by intact ESI-MS (Fig. 3b–d). These proteins were chosen as SOCS4 and SOCS6 are already structurally well characterized, and because SOCS4 Cys350, and CISH Cys144 are in a similar position as Cys111 in SOCS2, whereas SOCS6 is lacking cysteines in the EF loop[36]–[38]. […] Although SOCS6 lacks a cysteine in its EF loop, Cys471 from the BG loop is predicted to be in close proximity to the chloroacetamide functional group of MN551, as evident from the superposed SOCS2 and SOCS6 structures, potentially explaining the modification, albeit minimal (Fig. 3f). Structure-guided improvements upon this observed MN551-SOCS6 covalency could expedite future attempts in development of covalent binders for SOCS6. In the absence of a PDB structure for CISH, we overlayed SOCS2-SH2 domain with an AlphaFold model generated for the CISH SH2 domain with deletions in the N-terminus and the PEST sequence (66-258, Δ174-202, Fig. 3g). Amongst all the SOCSs, CISH has the highest sequence identity to SOCS2-SH2 and the presence of a conserved Cys144 in the EF loop together likely explain its complete covalent modification by MN551.
(§2) SBC2 protein (40 µM), SBC2 C111S, SBC4, SBC6, or CISH were incubated with an equimolar concentration of MN551 in 50 mM Tris, pH 8.0, 50 mM NaCl, 1 mM TCEP. At defined time points 20 µl samples were removed and the protein precipitated by the addition of 80 µl methanol. The precipitated protein was pelleted by centrifugation, washed with 500 µl methanol, and resuspended in an aqueous solution of 15% acetonitrile and 1% TFA. Samples were separated by HPLC on a C3 column using a 10–75% gradient of acetonitrile and analyzed using an Agilent 6130 quadrupole MS. Spectra were deconvoluted and integrated using Agilent LC/MSD ChemStation.

SOCS4-EloBC (SBC4) = target: T2, SOCS4-EloBC (SBC4) (Homo sapiens, UniProt Q8WXH5); details: SOCS4 + MN551 (1:1, 40 µM), 0 min
T2 construct: SOCS4 (amino acids 274-437); made in house; E. coli implied
Excerpt: as §1, §2

SOCS6-EloBC (SBC6) = target: T3, SOCS6-EloBC (SBC6) (Homo sapiens, UniProt O14544); details: SOCS6 + MN551 (1:1, 40 µM)
T3 construct: SOCS6 (amino acids 353-535); His6-GST (N, cleaved yes); made in house; E. coli implied
Excerpt: as §1, §2

[1] = target: T4, SOCS2 C111S mutant (SBC2 C111S) (Homo sapiens, UniProt O14508, C111S); details: for % modified: SOCS2 C111S + MN551 (1:1, 50 µM)
T4 construct: SOCS2 (amino acids 32–198); His6 (N, cleaved yes); made in house; host or cells: E. coli BL21(DE3)
Experimental: as §2, with “SBC2 protein (40 µM), SBC2 C111S, SBC4, SBC6, or CISH were incubated with an equimolar concentration of MN551 in 50 mM Tris, pH 8.0, 50 mM NaCl, 1 mM TCEP.” left out

O=C(CCl)Nc1cccc(CNC(=O)[C@H](Cc2ccc(OP(=O)(O)O)cc2)NC(=O)Cc2ccc(F)cc2)c1 [MN551]
% modified (CISH-EloBC): 0.0% | % modified (SOCS4-EloBC (SBC4)): 0.0% | % double-modified (SOCS6-EloBC (SBC6); 0 min): 0.0% | % modified (single adduct) (SOCS6-EloBC (SBC6); 0 min): 0.0% | % double-modified (SOCS6-EloBC (SBC6); 120 min): 2.6% | % modified (single adduct) (SOCS6-EloBC (SBC6); 120 min): 18% and 18.3% | covalent reactivity with C111S mutant [1]: no reactivity; also recorded: does not covalently react | % modified ([1]; t = 0 min): 0.0% | % modified ([1]; t = 5 min): 0.0% | % modified ([1]; t = 10 min): 0.0% | % modified ([1]; t = 20 min): 0.0% | % modified ([1]; t = 40 min): 0.0% | % modified ([1]; t = 60 min): 0.0% | % modified ([1]; t = 90 min): 0.0% | % modified ([1]; t = 120 min): 0.0%
